How the values were obtained:
Type in all cases: cell-based
[1] = system: HCT116 colon cancer cells; assay: Cancer cell growth inhibition, Sulforhodamine B assay; details: Homo sapiens, HCT-116, 120 h; HCT116, 5 days culture, SRB; read-out: Cancer Cell Line GI50 Range HCT116
Protocol: (§1) Breast cancer cells (MDA-MB-231), colon cancer cells (HCT116) and ovarian cancer cells (PA-1) were seeded (1000 to 4000 in 80 μl per well depending on the cell growth rate) into 96 well plates 24 hours before compound overlay. Compounds were prepared as 10 mM stock solutions in 100% DMSO which were diluted with DMEM (Dulbecco's Modified Eagle's Medium) cell growth Medium (Invitrogen, Burlington, ON, Canada) containing 10% FBS (Fetal Bovine Serum) to concentrations ranging from 50 nM to 250 μM. Aliquots (20 μl) from each concentration were overlaid to 80 μl of the pre-seeded cells in the 96 well plates to make final concentrations of 10 nM to 50 μM. The cells were cultured for 5 days before the Sulforhodamine B assay (SRB) was performed to determine the compound's cell growth inhibition activity.
(§2) Sulforhodamine B (purchased from Sigma, Oakville, ON, Canada) is a water-soluble dye that binds to the basic amino acids of the cellular proteins. Thus, colorimetric measurement of the bound dye provides an estimate of the total protein mass that is related to the cell number. the cells are fixed in situ by gently aspirating off the culture media and adding 50 μl ice cold 10% Trichloroacetic Acid (TCA) per well and incubate at 4° C. for 30-60 min. The plates are washed with H2O five times and allowed to air dry for 5 min. Addition of 50 μl 0.4% (w/v) SRB solution in 1% (v/v) acetic acid to each well and incubatation for 30 min at RT completes the staining reaction. Following staining, plates are washed four times with 1% acetic acid to remove unbound dye and then allowed to air dry for 5 min. The stain is solubilized with 100 μl of 10 mM Tris pH 10.5 per well. Absorbance is read at 570 nm.
(§3) The percentage (%) of relative growth inhibition was calculated by comparing to DMSO treated only cells (100%). GI50's were determined for compounds with cytotoxic activity. The GI50 was calculated using GraphPad PRISM software (GraphPad Software, Inc., San Diego, Calif., USA). GI50 (growth inhibition) is the compound concentration that causes 50% inhibition of cell growth.
(§4) In Table 1 below, GI50 value ranges for several compound examples against breast cancer cell lines (MDA-MB-231), colon cancer cell lines (HCT116) and ovarian cancer cell lines (PA-1) are given. […] The GI50 ranges are indicated as “A,” “B,” and “C,” for values less than or equal to 0.1 μM; those greater than 0.1 μM and less than or equal to 0.5 μM; and those greater than 0.5 μM, respectively.

[2] = system: MDA-MB-231 breast cancer cells; assay: as above; details: Homo sapiens, 120 h; MDA-MB-231, 5 days culture, SRB; read-out: Cancer Cell Line GI50 Range MDA-MB-231
Protocol: as §1, §2, §3, §4

[3] = system: PA-1 ovarian cancer cells; assay: as above; details: 120 h; PA-1, 5 days culture, SRB; read-out: Cancer Cell Line GI50 Range PA-1
Protocol: as §1, §2, §3, §4

[4] = system: colon 12 tumor initiating cells; assay: Colon tumor-initiating cell growth inhibition, Alamar Blue assay; details: 216 h, colon TICs, 9 days culture, read-out: Tumor Initiating Cell Line GI50 Range colon 12
From the text: (§5) Non-tissue or tissure cultured treated T-75 flask and 96-well plates were purchased from VWR. Vitamin B-27 supplement, MEM NEAA (minimum essential medium non essential amino acids), sodium pyruvate, L-glutamine, N2 supplement, penicillin-streptomycin and fungizone/amphotericin B were obtained from Invitrogen. Lipid mixture, heparin and EGF were purchased from Sigma; bFGF from BD Biosciences. Colon tumor initiating cells (TICs) were routinely maintained using non-tissue cultured treated T-75 flasks in DMEM:F12 medium containing 0.2XB-27 supplement, 4 ug/ml heparin, 1XMEM NEAA, 1Xsodium pyruvate, 1 mM glutamine, 10 pg/ul bFGF, 20 pg/ul EGF, 1×N2 supplement, lipid mixture, penicillin-streptomycin and fungizone/amphotericin B. Ovarian TICs were routinely maintained using tissue cultured treated T-75 flasks in DMEM:F12 medium containing 1XB-27 supplement, 4 ug/ml heparin, 20 pg/ul bFGF, 20 pg/ul EGF and penicillin-streptomycin.
(§6) Compounds described herein were dissolved in DMSO and further diluted in cell culture medium for GI50 determination. Colon TICs were trypsinized and seeded into non-tissue cultured treated 96-well plates with 4,000 cells/well. After 24 h, compound was added into the cell culture at different concentrations, and the final concentration of DMSO was adjusted to 0.1%. Cells were then cultured at 37° C. for 9 days. Ovarian TICs were trypsinized and seeded into tissue cultured treated 96-well plates with 1,000 cells/well. After 24 h, compound was added into the cell culture at different concentrations, and the final concentration of DMSO was adjusted to 0.1%. Cells were then cultured at 37° C. for 6 days. Cell viability was assessed by Alamar Blue assay: 10 ul of Alamar Blue was added into each well. After 4 hours incubation at 37° C., fluorescence was recorded at excitation 544 and emission 590. GI50 (Growth inhibition) was calculated using GraphPad Prism 4.0 software. Cell growth inhibition data for compounds described herein is tabulated below (Table 2). The GI50 ranges are indicated as “A,” and “B”, for values less than or equal to 0.1 μM: those greater than 0.1 μM and less than or equal to 0.5 μM, respectively.

[5] = system: ovarian 2393A tumor initiating cells; assay: Ovarian tumor-initiating cell growth inhibition, Alamar Blue assay; details: 144 h, ovarian TICs, 6 days culture, read-out: Tumor Initiating Cell Line GI50 Range ovarian 2393A
From the text: as §5, §6

Measured: GI50

CC(C)[C@H](NC(=O)c1ccc2[nH]nc(-c3ccc(N4CC5(CCO5)C4)cc3)c2c1)c1ccccc1Cl [Example A23, (S)-3-(4-(1-Oxa-6-azaspiro[3.3]heptan-6-yl)phenyl)-N-(1-(2-chlorophenyl)-2-methylpropyl)-1H-indazole-5-carboxamide]
≤ 100 nM: all assays above

O=C(NC(c1ncccn1)C1CCCC1)c1ccc2[nH]nc(-c3ccc(N4CC5(COC5)C4)cc3)c2c1 (stereo not drawn) [Example A24, 3-(4-(2-oxa-6-azaspiro[3.3]heptan-6-yl)phenyl)-N-(cyclopentyl(pyrimidin-2-yl)methyl)-1H-indazole-5-carboxamide]
≤ 100 nM: all assays above

CC(C)[C@H](NC(=O)c1ccc2[nH]nc(-c3ccc(N4CC5(CC(O)C5)C4)cc3)c2c1)c1ccccc1Cl [Example A32, (S)-N-(1-(2-Chlorophenyl)-2-methylpropyl)-3-(4-(6-hydroxy-2-azaspiro[3.3]heptan-2-yl)phenyl)-1H-indazole-5-carboxamide]
≤ 100 nM: all assays above

Reference: patent publication US8980934B2, “Kinase inhibitors and method of treating cancer with same” (University Health Network, priority 2012, dated 2015)
